Measurements as given in BindingDB's records for PubMed 7651361 (Georgetown University, 1995).
pKi: −log10 of the molar value. “And” between values parts separate entries of the source, which are not always exact repeats. Identical values can stand only once.

Target: Nicotinic acetylcholine receptor (Rattus leucopus, UniProt Q62594)
Sequence (Q62594 whole entry): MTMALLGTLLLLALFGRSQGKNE

Structure (SMILES) | pKi
CN1[C@@H]2CC[C@H]1CC(OC(=O)[C@H](CO)c1ccccc1)C2 (stereo partly drawn) [CAS_51-55-8] | < 5.00
COc1cc2c3cc1Oc1cc(ccc1O)CC1c4c(cc(OC)c(O)c4Oc4ccc(cc4)CC3[N+](C)(C)CC2)CC[N+]1(C)C (stereo not drawn) [CAS_8063-06-7] | 5.35 and 5.69
C[N+](C)(C)CCCCCC[N+](C)(C)C [Hexamethoniumdibromide] | < 5.00
